Assay results reported in US20240226085A1, “KYNRENINE AND DERIVATIVES THEREOF FOR TREATING ATROPHIC SCARRING” (BirchBioMed Inc., priority 2021, published 2024).

Legend:
[1] = tested on: rabbit ear hypertrophic scarring model; conditions: topical application to skin tissue; '523 FIG. 13; cited from earlier work
dermal fibroblasts = conditions: cited from earlier work
[2] = tested on: atrophic acne scarring on the face; test: Topical kynurenic acid (0.5% by weight) cream for reducing appearance of atrophic acne scarring (individual user reports); type: in vivo, human; conditions: person
Source text: FIG. 1A is a photographic representation of a target facial skin area of a subject with treatment-resistant stable atrophic scarring from acne before application of topical kynurenic acid (0.5% by weight) cream.
FIG. 1B is a photographic representation of the target facial skin area of the subject of FIG. 1A after bidaily use of topical kynurenic acid (0.5% by weight) for 8 weeks. […] The dashed black box in each image highlights the similar target area on the right cheek region in both images for comparison.
I. A topical cream was made as follows, kynurenic acid was solubilized in a phosphate buffered solution of 1 M NaOH and the pH was then adjusted to 5.5 at room temperature, this KynA solution was then added with steady mixing to a dermatological compounding base (Glaxal Base™, WellSpring, Ont., Canada) and adjusted to a pH of 6 before packaging in poly bottles. Topical cream was made at 0.15%, 0.25%, 0.4%, and 0.5% kynurenic acid by weight (Papp et al., 2018).
A person presented with significant atrophic acne scarring on the face and self-reported that their acne scars had been treatment resistant for >20 years. The person applied a topical cream containing 0.5% kynurenic acid by weight twice daily for a 3-month period to the site of the atrophic acne scarring, an application rate of approximately 17 ug of kynurenic acid per cm^2 of skin per application. Initial dermatological healing can be followed by visual inspection of the site. […] An illustrative image of the “before” and “during use” is shown as FIG. 1.
A person with atrophic acne scarring on the face self-reported that the scars were “mature”, “stable”, and had persisted for “>3 years”. The person applied a topical cream containing 0.5% kynurenic acid by weight once daily for a 2-month period at an application rate of approximately 2.5-5 micrograms kynurenic acid per square cm of skin per application.

In the case of Nc1ccccc1C(=O)CC(N)C(=O)O (racemic) [kynurenine], the “MMP-1 relative to controls” value [1] is listed as “increased” and the “collagen relative to controls” value [1] is listed as “decreased”.

In the case of O=C(O)c1cc(=O)c2ccccc2[nH]1 [kynurenic acid], the MMP-1 expression (dermal fibroblasts; '523 FIG. 2) is listed as “increase”, the MMP-3 expression (dermal fibroblasts; '523 FIG. 3) is listed as “increase” and the “collagen 1 expression” value (dermal fibroblasts; '523 FIG. 10) is listed as “downregulate”. The fibronectin expression (dermal fibroblasts; '523 FIG. 16) was “downregulate”, the “remarks of others on the user's atrophic acne scars” value ([2]; topical cream 0.5% by weight once daily, 2-month period) was “less visible or less noticeable” and the “user-reported appearance of holes and indents of atrophic acne scars” value ([2]; topical cream 0.5% by weight once daily, 2-month period, approx. 2.5-5 micrograms per square cm per application) was “less visible and less noticeable and appeared to be filling in”. The “time at which the reported reduction in appearance started” value ([2]; topical cream 0.5% by weight twice daily) was “approximately 2 weeks”, the “unsolicited feedback from others on appearance of acne [atrophic scarring]” value ([2]; topical cream 0.5% by weight twice daily, 3-month period) was “markedly less apparent” and the “subject-reported perceived appearance of atrophic acne scarring” value ([2]; topical cream 0.5% by weight twice daily, 3-month period, approx. 17 ug per cm^2 per application) was “significant reduction”.
